{
  "source": "patent US11590156B2",
  "about": "“RNAi agents for hepatitis B virus infection” (Arrowhead Pharmaceuticals, Inc., priority 2016, dated 2023)",
  "key": {"[1]": {"tested_on": "HBV genotype C; serum HBsAg", "test": "Serum HBsAg levels in HBV-infected humanized FRG model mice", "assay_type": "in vivo, FRG mice transplanted with human hepatocytes", "conditions": "mouse A-1; PBS (no RNAi agent); oral daily gavage 0.01 mg/kg Entecavir from day 1; Day 8", "experimental": "ii) Serum Hepatitis B surface antigen (HBsAg) levels: Serum was collected and diluted 10 to 8000-fold in PBS containing 5% nonfat dry milk. Secondary HBsAg standards diluted in the nonfat milk solution were prepared from serum of ICR mice (Harlan Sprague Dawley) that had been transfected with 10 μg HBsAg-expressing plasmid pRc/CMV-HBs (Aldevron, Fargo, N. Dak.). HBsAg levels were determined with a GS HBsAg EIA 3.0 kit (Bio-Rad Laboratories, Inc., Redmond, Wash.) as described by the manufacturer. Recombinant HBsAg protein, ayw subtype, also diluted in nonfat milk in PBS, was used as a primary standard (Aldevron). […]\nSerum was collected on day 8, day 15, day 22, day 29, day 36, and day 40 and serum Hepatitis B surface antigen (HBsAg) levels were determined pursuant to the procedure set forth in Example 2, above."}, "[2]": {"tested_on": "HBV genotype C; serum HBV DNA", "test": "Serum HBV DNA levels in HBV-infected humanized FRG model mice", "assay_type": "in vivo, FRG mice transplanted with human hepatocytes", "conditions": "for Serum HBV DNA levels normalized to the average of pre-treatment day −10 and day −3: PBS (no RNAi agent), oral daily gavage 0.01 mg/kg Entecavir from day 1", "experimental": "iv) Serum HBV DNA levels: Equal volumes of serum from mice in a group or subgroup were pooled to a final volume of 100 μL. DNA was isolated from serum samples using the QIAamp MinElute Virus Spin Kit (Qiagen, Valencia, Calif.) following the manufacturer's instructions. Sterile 0.9% saline was added to each sample to a final volume of 200 μL. Serum samples were added to tubes containing buffer and protease. Carrier RNA was added to aid in the isolation of small amounts of DNA. […] After incubating 15 min at 56° C., nucleic acids were precipitated from the lysates with ethanol and the entire solution applied to a column. After washing, the samples were eluted into a volume of 50 μL Buffer AVE.\nThe number of copies of HBV genomes in DNA isolated from the pHBV mouse model serum was determined by qPCR. Plasmid pSEAP-HBV353-777, encoding a short segment of the HBV genome within the S gene (bases 353-777 of GenBank accession #V01460), was used to create a six log standard curve. Samples with recovery of DNA below 2 standard deviations from the average, based on detection of pHCR/UbC-SEAP were omitted. TaqMan chemistry-based primers and probes with fluor/ZEN/IBFQ are utilized.\nqPCR assays were performed on a 7500 Fast or StepOne Plus Real-Time PCR system (Life Technologies). For evaluation of HBV DNA in serum, DNA was isolated from singlet or duplicate purification steps from pooled group serum samples. Quantitations of HBV DNA and recovery control plasmid were determined by qPCR reactions performed in triplicate. The probes to quantitate HBV and pHCR/UbC-SEAP were included in each reaction.\nFor this study, Male FRG® (genotype Fah −/−/Rag2−/−/Il2rg −/− triple knockout mice on a C57BL/6 background (Yecuris) were transplanted with human hepatocytes when they were 1-2 months old. The human hepatocytes were allowed to repopulate the liver for approximately 6 months with periodic NTBC treatment to discourage growth of mouse hepatocytes. At 9 months of age the mice were given an intravenous inoculation of 4×10^8 genomes/kg HBV genotype C, which infected the human hepatocytes. After 2-3 months, serum HBV DNA levels reached a plateau indicating the human hepatocytes were maximally infected (mouse hepatocytes cannot be infected by HBV). Mice were one year old at the start of treatment with HBV RNAi agents, thus nearing the end of their life span.\nPre-treatment serum samples were taken on day −10 and day −3. Beginning on day 1, each mouse was administered an oral daily gavage with 0.01 mg/kg Entecavir dissolved in water to inhibit HBV replication. Daily dosing of Entecavir continued until the day mice were euthanized. Entecavir administration was expected to reduce serum HBV DNA in chronically infected human patients, but not reduce HBsAg.\nEach mouse was also given a subcutaneous administration of 100 μl per 20 grams body weight containing the amount of HBV RNAi agent(s) formulated in phosphate buffered saline, or an equal volume of phosphate buffered saline without an HBV RNAi agent, on day 1 and on day 29 (if still alive on day 29), pursuant to the schedule as set forth in Table 47, directly above. […] The injections were performed between the skin and muscle (i.e. subcutaneous injections) into the loose skin over the neck and shoulder area.\nAdditionally, serum HBV DNA levels were determined from serum samples collected on days −10, −3, 8, 15, 22, 29, 36, and 40, pursuant to the procedure set forth in Example 2, above."}},
  "data": [
    {"smiles": "C=C1[C@H](CO)[C@@H](O)C[C@@H]1n1cnc2c(=O)[nH]c(N)nc21", "note": "[Entecavir]", "values": [
      {"measurement": "Average HBsAg levels normalized to pre-treatment (day −3)", "setting": "[1]", "value": 0.830},
      {"measurement": "viral replication (serum HBV DNA)", "setting": "[2]; Example 18, 0.01 mg/kg Entecavir oral daily gavage", "value": "reduced viral replication in both the absence and presence of HBV RNAi agents"},
      {"measurement": "Serum HBV DNA levels normalized to the average of pre-treatment day −10 and day −3", "setting": "[2]; mouse A-1, Day 8", "value": 0.072},
      {"measurement": "Serum HBV DNA levels normalized to the average of pre-treatment day −10 and day −3", "setting": "[2]; mouse A-1, Day 15", "value": 0.038},
      {"measurement": "Serum HBV DNA levels normalized to the average of pre-treatment day −10 and day −3", "setting": "[2]; mouse A-1, Day 22", "value": 0.015},
      {"measurement": "Serum HBV DNA levels normalized to the average of pre-treatment day −10 and day −3", "setting": "[2]; mouse A-1, Day 29", "value": 0.027},
      {"measurement": "Serum HBV DNA levels normalized to the average of pre-treatment day −10 and day −3", "setting": "[2]; mouse A-1, Day 36", "value": 0.060},
      {"measurement": "Serum HBV DNA levels normalized to the average of pre-treatment day −10 and day −3", "setting": "[2]; mouse A-2, Day 8", "value": 0.130},
      {"measurement": "Serum HBV DNA levels normalized to the average of pre-treatment day −10 and day −3", "setting": "[2]; mouse A-2, Day 15", "value": 0.075}
    ]}
  ]
}
